According to patent US7358074B2, “Human phosphatase RET31, and variants thereof” (Bristol-Myers Squibb Company, priority 2000, dated 2008):
Residue numbers refer to the chain shown, from its start. Entries after “also recorded” stand apart in the source; their conditions may differ.

Experiments:
full-length RET31 = target: T1, full-length RET31 (Homo sapiens, UniProt Q9BY84, C584R/N284S/T302A); assay: phosphatase activity assay, hydrolysis of para-nitrophenylphosphate (pNPP); assay type: biochemical; conditions: 2 mM orthovanadate; pNPP substrate; FIG. 36
T1 construct: made in house
T1 sequence (Q9BY84 with tags, fused parts or gaps N284S/T302A/C584R): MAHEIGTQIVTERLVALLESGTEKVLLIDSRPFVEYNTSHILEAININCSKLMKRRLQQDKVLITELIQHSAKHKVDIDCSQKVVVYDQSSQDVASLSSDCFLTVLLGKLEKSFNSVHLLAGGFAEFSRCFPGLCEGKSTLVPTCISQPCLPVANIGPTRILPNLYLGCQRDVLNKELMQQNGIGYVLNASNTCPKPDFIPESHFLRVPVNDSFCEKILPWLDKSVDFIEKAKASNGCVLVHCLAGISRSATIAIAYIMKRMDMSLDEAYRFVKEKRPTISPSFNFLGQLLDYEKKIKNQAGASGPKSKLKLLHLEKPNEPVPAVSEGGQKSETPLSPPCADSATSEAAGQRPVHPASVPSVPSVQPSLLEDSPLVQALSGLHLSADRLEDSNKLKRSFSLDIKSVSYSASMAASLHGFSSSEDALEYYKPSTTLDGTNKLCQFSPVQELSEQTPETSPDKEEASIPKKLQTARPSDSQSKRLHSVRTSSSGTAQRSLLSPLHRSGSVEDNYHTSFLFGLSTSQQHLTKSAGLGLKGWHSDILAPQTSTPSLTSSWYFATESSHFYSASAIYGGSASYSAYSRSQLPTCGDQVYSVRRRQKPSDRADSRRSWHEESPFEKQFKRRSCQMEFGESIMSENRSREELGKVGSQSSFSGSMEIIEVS
Procedure: (§1) The phosphatase activity for the full-length RET31 and the M1 to T302 C-terminal RET31 GST fusion proteins were measured by assaying the ability of the proteins to hydrolyze para-nitrophenylphosphate, a compound known to be a substrate for phosphatases, as described in Krejsa, C. et al., J. Biol. Chem. Vol. 272, p. 11541-11549, 1997 (which is hereby incorporated in its entirety herein). The proteins are incubated with para-nitrophenylphosphate in a solution containing 10 mM imidazole, pH 7.0, 1 mM EDTA, 2 mM dithiothreitol, and 5 μg/ml BSA for 2 hours with and without sodium orthovanadate (Fisher) prepared in distilled water. The progress of the phosphatase reaction in a 96-well format was monitored by the OD405 nm on a plate reader (Molecular Devices) at 10-minute intervals in the kinetic mode.
(§2) The RET31-GST full length (FL), M1 to T302 C-terminal RET31-GST (trunc), or GST alone were purified and assayed for cleavage of para-nitrophenylphosphate (pNPP). The bars represent the average of triplicate determinations, and the standard deviations are as shown. Each protein preparation was assayed in the absence and presence of 2 mM of the phosphatase inhibitor orthovanadate. In addition, the full length and truncated protein phosphatase activity was blocked by the phosphatase inhibitor vanadate, as shown.

[1] = target: T2, M1 to T302 C-terminal RET31 (Homo sapiens, UniProt Q9BY84, I6V/M5I/N284S); assay: as above; assay type: biochemical; conditions: 2 mM orthovanadate; pNPP substrate; FIG. 36
T2 construct: made in house
T2 sequence (Q9BY84 1-302 M5I/I6V/N284S): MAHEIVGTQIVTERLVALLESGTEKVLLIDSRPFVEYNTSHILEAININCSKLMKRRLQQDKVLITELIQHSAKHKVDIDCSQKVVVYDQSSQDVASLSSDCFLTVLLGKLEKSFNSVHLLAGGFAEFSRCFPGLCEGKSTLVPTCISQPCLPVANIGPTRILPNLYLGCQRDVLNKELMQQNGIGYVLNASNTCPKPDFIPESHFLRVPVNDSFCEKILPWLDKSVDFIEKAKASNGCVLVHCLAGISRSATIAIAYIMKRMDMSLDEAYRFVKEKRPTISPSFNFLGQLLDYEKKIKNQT
Procedure: as §1, §2

RET31 = assay: para-nitrophenylphosphate (pNPP) phosphatase activity assay of purified RET31-GST fusion proteins; assay type: biochemical, human
Procedure: The bars represent the average of triplicate determinations, and the standard deviations are as shown. Each protein preparation was assayed in the absence and presence of 2 mM orthovanadate (”-van”). […] The phosphatase assays were performed as described in Example 57 herein.
In addition to assaying the full-length RET31 polypeptide (SEQ ID NO:109), a C-terminal deletion of RET31 was also assayed corresponding to amino acids M1 to T302 of SEQ ID NO:109).

human lung fibroblasts = assay: human lung fibroblast proliferation assay, Alamar Blue; assay type: cell-based; conditions: 3 days in basal medium, expected (should show)
Procedure: Human lung fibroblasts are obtained from Clonetics (San Diego, Calif.) and maintained in growth media from Clonetics. Dermal microvascular endothelial cells are obtained from Cell Applications (San Diego, Calif.). For proliferation assays, the human lung fibroblasts and dermal microvascular endothelial cells can be cultured at 5,000 cells/well in a 96-well plate for one day in growth medium. The cells are then incubated for one day in 0.1% BSA basal medium. After replacing the medium with fresh 0.1% BSA medium, the cells are incubated with the test proteins for 3 days. Alamar Blue (Alamar Biosciences, Sacramento, Calif.) is added to each well to a final concentration of 10%. The cells are incubated for 4 hr. Cell viability is measured by reading in a CytoFluor fluorescence reader. For the PGE2 assays, the human lung fibroblasts are cultured at 5,000 cells/well in a 96-well plate for one day. […]

Molecule: [Na+].[Na+].[Na+].[O]=[V]([O-])([O-])[O-] [orthovanadate, sodium orthovanadate]
- effect of phosphatase inhibitor on phosphatase activity (full-length RET31): blocked
- effect of phosphatase inhibitor on phosphatase activity [1]: blocked

Molecule: [O]=[V]([O-])([O-])[O-] [vanadate]
- inhibition of RET31 phosphatase activity (RET31; 2 mM orthovanadate, full-length and M1 to T302 RET31-GST): blocked; also recorded: specifically inhibited

Molecule: FGF-2: FGF-2 (basic FGF), comparison growth factor
- concentration showing stimulation of growth of fibroblasts (human lung fibroblasts): 10 to 2500 ng/mL

B1: M1 to T302 RET31 C-terminal deletion mutant: C-terminal deletion of RET31 corresponding to amino acids M1 to T302 of SEQ ID NO:109, GST fusion (protein, listed as Homo sapiens)
chain: T2 sequence (Q9BY84 1-302 M5I/I6V/N284S) with I5M, V6I, M180I, N193Y, S284N
modifications: GST fusion partner lacks entry
- increase in phosphatase activity relative to the full-length RET31 polypeptide (RET31; pNPP substrate, GST fusion proteins): five fold increase
- phosphatase activity via cleavage of the NPP substrate (RET31; purified GST fusion protein, pNPP substrate, compared to purified GST alone): demonstrated phosphatase activity
